Assays:
[1] = test system: RAMOS human lymphoma cell line; test: cells; details: Homo sapiens, Ramos, 72 h
Method: (§1) Briefly, cells were seeded in 96 well microtiter plates at a density of 50000 cells per well in 150 μL of culture medium and incubated for 4-6 hours in drug-free medium before treatment with vehicle alone or test compounds for 72 hours.
(§2) After incubation, the cytotoxic effect was evaluated using a MTT reduction assay. 50 μL of MTT solution (1 mg/mL) were added to the wells and incubated for 15-17 hours at 37° C. until formazan crystals were formed. After gently removing the culture medium, DMSO was added to dissolve the insoluble purple formazan product into a colored solution. […] Results were expressed as percentage of control cell growth. The EC50 values (half-maximal effective concentration) used for the combination studies were calculated using Prism v5.02 software (GraphPad). EC50 was expressed as molar concentration and represented the mean of at least three independent assays.
(§3) Using these starting concentrations, constant serial dilutions were performed to generate the concentration-response curves for each set of drugs, alone and in combination.
(§4) Based on this equation, the term “combination index” (CI) is used as a quantitative measure of the degree of drug interactions. […] CI values were calculated by solving the equation for different values of fa (i.e., for different degrees of cell groth inhibition).
(§5) Data were analyzed using CalcuSyn software (Biosoft, Cambridge, UK). For statistical analysis and graphs Prism software (GraphPad, San Diego, USA) was used. All the results represent the mean of at least three independent experiments.
(§6) Additional serial dilutions were prepared in serum-free culture medium to achieve a final 4× concentration. Aliquots of 50 μL of each diluted compound were added per well.
(§7) In the second set of assays, concentration-response curves for the agents tested, both alone and in two-drug combination, were performed.

[2] = test system: U-937 human lymphoma cell line; test: cells; details: Homo sapiens, U-937, 72 h
Method: as §1, §2, §3, §4, §5, §6, §7

[3] = test system: MOLT-4 human leukemia cell line; test: cells; details: Homo sapiens, MOLT-4, 72 h
Method: as §6
(§8) JURKAT and MOLT-4 were the human leukemia cell lines selected for this assay, which were obtained from the American Type Culture Collection (ATCC).
as §1, §2
(§9) b. In a second set of experiments, concentration-response curves for the agents tested, both alone and in two-drug combination, were performed, using the same methodology described in the previous paragraph.
as §3, §4, §5

[4] = test system: JURKAT human leukemia cell line; test: cells; details: Homo sapiens, Jurkat, 72 h
Method: as §6, §8, §1, §2, §9, §3, §4, §5

[5] = test system: SK-MEL-2 human melanoma cell line; test: cells; details: Homo sapiens, SK-MEL-2, 72 h
Method in brief: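 SK-MEL-2 melanoma cells (5,000/well) grown 24 h drug-free, then exposed 72 h to vehicle or test compounds. Viability by MTT reduction (8 h, 37 °C), formazan dissolved in DMSO; results expressed as percentage of control cell growth.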

[6] = test system: U87-MG human glioblastoma cell line; test: cells; details: Homo sapiens, U-87 MG, 72 h
[7] = test system: HGC-27 human gastric carcinoma cell line; test: cells; details: Homo sapiens, HGC-27, 72 h
[8] = test system: MDA-MB-231 human breast adenocarcinoma cell line; test: cells; details: Homo sapiens, MDA-MB-231, 72 h
[9] = test system: RXF-393 human kidney carcinoma cell line; test: cells; details: Homo sapiens, RXF 393, 72 h
[10] = test system: A673 human rhabdomyosarcoma cell line; test: cells; details: Homo sapiens, A673, 72 h
Method in brief: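 A673 cells seeded at 5,000 per well, grown 24 h drug-free, then exposed to compounds for 72 h. Viability by MTT reduction (8 h, 37 °C), formazan dissolved in DMSO. Results expressed as percentage of control cell growth.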

[11] = test system: HepG2 human hepatocellular liver carcinoma cell line; test: MTT cytotoxicity assay in HepG2 cells: IC50 of single agents and combinations with PM01183; format: cell-based; details: Homo sapiens, HepG2, 72 h
[12] = test system: A549 human lung carcinoma cell line; test: MTT cytotoxicity assay in A549 cells: IC50 of single agents and combinations with PM01183; format: cell-based; details: Homo sapiens, A549, 72 h
Method in brief: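 A549 cells seeded at 5,000 per well, grown 24 h drug-free, then exposed to vehicle or compounds for 72 h, either singly or combined with PM01183. Combination responses plotted against dose ratio relative to an additivity line.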

[13] = test system: PC-3 human prostate cancer cell line; test: cells; details: Homo sapiens, PC-3, 72 h
Method in brief: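 Cells seeded at 5,000/well, grown 24 h drug-free, then exposed to vehicle or test compounds for 72 h. Viability by MTT reduction (8 h, 37 °C), formazan dissolved in DMSO. Values given as percentage of control cell growth.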

[14] = test system: IGROV-1 human ovarian adenocarcinoma cell line; test: cells; details: Homo sapiens, IGROV-1, 72 h
[15] = test system: PANC-1 human pancreatic carcinoma cell line; test: cells; details: Homo sapiens, PANC-1, 72 h
Method in brief: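 Cells seeded at 5,000/well, left 24 h drug-free, then exposed to test compounds for 72 h. Viability read by MTT reduction (MTT added for 8 h at 37° C, formazan dissolved in DMSO).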

In the case of `COc1cc2c(cc1O)CCN[C@]21CS[C@@H]2c3c(OC(C)=O)c(C)c4c(c3[C@H](COC1=O)N1[C@@H]2[C@H]2c3c(cc(C)c(OC)c3O)C[C@@H]([C@@H]1O)N2C)OCO4` [ET-743, trabectedin], the EC50 [1] is reported as 9.55 nM, the EC50 [2] is reported as 8.62 nM and the EC50 [3] is reported as 3.84 nM. For the same molecule, the EC50 [4] was 6.96 nM, the IC50 [5] was 2 nM and the IC50 [6] was 5 nM. It also gave an IC50 [7] of 5.8 nM, an IC50 [8] of 2 nM and an IC50 [9] of 9.6 nM. The IC50 [10] was 1.9 nM, the IC50 [11] was 7.21 nM and the IC50 [12] was 22.5 nM. For the same molecule, the IC50 [13] was 8 nM, the IC50 [14] was 6.45 nM and the IC50 [15] was 21 nM.

Reference: patent US11590129B2, “Combination therapy with an antitumor alkaloid” (PHARMA MAR, S.A., priority 2010, dated 2023)
